Source: publication PMC5407626 (PLoS ONE, 2017)
Where “and” joins values, the source holds several entries; their conditions need not be identical. Equal entries are not always repeated. Where two headings read alike, the source gives them in different places.

Columns and labels:
DES1 = molecular target: T1, DES1 (Homo sapiens, UniProt O15121); assay: DES1 activity in ARPE-19 cells (dihydroceramide/ceramide ratio, LC/MS); type: cell-based; set-up: DHCER (C18) / CER (C18) / DHCER (C16) / CER (C16): unit not given here; settings: 10 μM, 24 h; for increase in dihydroceramide/ceramide ratio, C18 ceramide: compared to DMSO control; for MEAN RATIO (DH / C) C16 / MEAN RATIO C18 DHCER/CER: mean of 3; for MEAN RATIO (DH / C) C16: DMSO 0.08; for MEAN RATIO C18 DHCER/CER: DMSO 0.289
T1 construct: endogenous in cells; host or cells: ARPE-19
T1 sequence (O15121 1-323): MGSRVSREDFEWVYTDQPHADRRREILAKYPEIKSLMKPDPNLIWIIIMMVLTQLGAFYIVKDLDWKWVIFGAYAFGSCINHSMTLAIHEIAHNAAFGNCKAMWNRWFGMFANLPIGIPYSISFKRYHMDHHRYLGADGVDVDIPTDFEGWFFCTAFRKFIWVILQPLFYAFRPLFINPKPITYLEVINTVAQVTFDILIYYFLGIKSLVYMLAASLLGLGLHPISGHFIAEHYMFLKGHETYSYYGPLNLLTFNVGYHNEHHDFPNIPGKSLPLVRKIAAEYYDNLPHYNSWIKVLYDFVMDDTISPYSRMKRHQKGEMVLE
Experimental: ARPE-19 cells were seeded onto tissue culture plates at a density of 2x10^5 cells/ml in complete medium and allowed to grow overnight. Cells were then treated with retinoids (10 μM) or vehicle (control) for 24 hours in a 37°C, 5% CO2 incubator at which time cells were harvested and total lipids were extracted into methyl-tert-butyl ether (MTBE) using the method of Matyash et al.. Extracted lipids normalized to total protein as described were subjected to liquid chromatography mass spectrometry (LC/MS) to determine the sphingolipid content in treated ARPE-19 cells. LC/MS analysis was performed using a Waters 2695 LC system coupled to an AB Sciex API2000 triple quadrupole mass spectrometer. […] The mass spectral analysis of the sphingolipid species was performed using electrospray ionization in the positive ion mode with multiple reaction monitoring (MRM). The following compound-specific transitions for precursor and characteristic product ions were used: 538 → 264 for C16 Ceramide (Cer); 540 → 266 for C16 dihydroceramide (DHCer); 566 →264 for C18 Cer; and 568 → 266 for C18 DHCer. Data was acquired and analyzed using Analyst software v 1.5 (AB Sciex).
The ratio of substrate to product for C16 and C18 ceramides (dihydroceramide/ceramide) in the presence of DMSO or inhibitors was determined by LC/MS.
Lipids were extracted from one 100 mm Petri dish for each biological replicate and subjected to mass spectrometry analysis. Data plotted as means±standard deviation; n = 3.

RARβ [1] = molecular target: T2, RARβ (Homo sapiens, UniProt P10826); assay: GeneBLAzer RAR-beta DA assay, agonist mode; type: cell-based
T2 sequence (P10826 183-417 limits assumed): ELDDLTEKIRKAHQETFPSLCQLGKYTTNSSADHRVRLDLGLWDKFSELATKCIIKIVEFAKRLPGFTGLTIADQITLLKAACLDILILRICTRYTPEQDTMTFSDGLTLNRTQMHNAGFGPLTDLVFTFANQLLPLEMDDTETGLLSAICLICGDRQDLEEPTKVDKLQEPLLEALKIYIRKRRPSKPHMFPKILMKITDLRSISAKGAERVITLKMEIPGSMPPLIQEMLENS
Experimental: The potency of agonists and antagonists was measured by GeneBLAzer RAR-beta DA Assay Kit (ThermoFisher Scientific) according to the manufacturer’s recommendations.
The phenylretinamides may have the ability to modulate the expression of proteins and induce cell apoptosis via RAR-dependent and -independent pathways. […] Human retina-derived cells in culture show differences in expression of RAR receptors. […] Clonetics HRPE primary human cells specifically express only RARβ [50].

RARβ [2] = molecular target: T2, RARβ; set-up: method as in Invitrogen; settings: RARβ agonist assay; ref Invitrogen; read-out: EC50 from Invitrogen; cited from earlier work
RBP4 = RBP4 (Homo sapiens, UniProt P02753); set-up: method as in PMID 16303925; settings: cited from earlier work
[3] = humans; cited from earlier work
[4] = mice, after 4 hours of treatment; cited from earlier work

Row | Structure (SMILES) | effect on DES1 activity / substrate accumulation (DES1) | increase in dihydroceramide/ceramide ratio, C18 ceramide (DES1) | MEAN RATIO (DH / C) C16 (DES1) | MEAN RATIO C18 DHCER/CER (DES1) | CER (C16) (DES1; single samples) | CER (C18) (DES1; single samples) | Ceramide Content, C16 CER (DES1; single samples) | Ceramide Content, C18 CER (DES1; single samples) | Mass Injected, C16 CER (DES1; single samples) | Mass Injected, C18 CER (DES1; single samples) | RATIO C18 DHCER/CER (DES1; single samples) | EC50 (RARβ [1]) | Ceramide Content, C18 DHCER (DES1; single samples) | DHCER (C18) (DES1; single samples) | Mass Injected, C18 DHCER (DES1; single samples) | further results
1 | O=C(O)c1ccccc1NC(=O)N1CCC(c2ccccc2C(F)(F)F)CC1 [A1120] | do not lead to overaccumulation of substrate | ~ 2 fold | 0.07 | 0.153 and 0.1528 | 18.30 and 24.15 and 18.55 | 11.60 and 16.65 and 11.05 | 18.30 ng and 24.15 ng and 18.55 ng | 11.60 ng and 16.65 ng and 11.05 ng | 3.66 ng and 4.83 ng and 3.71 ng | 2.32 ng and 3.33 ng and 2.21 ng | 0.136 and 0.202 and 0.120 | – | – | – | – | –
2 | CC1=C(/C=C/C(C)=C/C=C/C(C)=C/C(=O)Nc2ccc(O)cc2)C(C)(C)CCC1 [fenretinide, N-[4-hydroxyphenyl]retinamide] | inhibit DES1 activity | – | – | – | – | – | – | – | – | – | – | 560 nM | – | – | – | CER (C16) (DES1; single samples, listed as 4HPR): 17.20 and 18.50 and 17.10; CER (C18) (DES1; single samples, listed as 4HPR): 12.80 and 11.80 and 11.95; Ceramide Content, C16 CER (DES1; single samples, listed as 4HPR): 17.20 ng and 18.50 ng and 17.10 ng; Ceramide Content, C16 DHCER (DES1; single samples, listed as 4HPR): 6.15 ng and 4.01 ng and 5.75 ng; Ceramide Content, C18 CER (DES1; single samples, listed as 4HPR): 12.80 ng and 11.80 ng and 11.95 ng; Ceramide Content, C18 DHCER (DES1; single samples, listed as 4HPR): 9.30 ng and 7.50 ng and 7.25 ng; DHCER (C16) (DES1; single samples, listed as 4HPR): 5.75 and 6.15 and 4.01; DHCER (C18) (DES1; single samples, listed as 4HPR): 9.30 and 7.50 and 7.25; Mass Injected, C16 CER (DES1; single samples, listed as 4HPR): 3.44 ng and 3.70 ng and 3.42 ng; Mass Injected, C16 DHCER (DES1; single samples, listed as 4HPR): 1.230 ng and 0.801 ng and 1.150 ng; Mass Injected, C18 CER (DES1; single samples, listed as 4HPR): 2.56 ng and 2.36 ng and 2.39 ng; Mass Injected, C18 DHCER (DES1; single samples, listed as 4HPR): 1.86 ng and 1.50 ng and 1.45 ng; EC50 (RARβ [2]): 220 nM
3 | COc1ccc(NC(=O)/C=C(C)/C=C/C=C(C)/C=C/C2=C(C)CCCC2(C)C)cc1 [MPR, N-[4-methoxyphenyl]retinamide] | do not lead to overaccumulation of substrate | – | 0.08 | 0.338 and 0.3375 | 20.40 and 20.30 and 18.55 | 14.65 and 15.00 and 13.65 | 20.40 ng and 20.30 ng and 18.55 ng | 14.65 ng and 15.00 ng and 13.65 ng | 4.08 ng and 4.06 ng and 3.71 ng | 2.93 ng and 3.00 ng and 2.73 ng | 0.362 and 0.331 and 0.319 | 1000 nM and 1010 nM | 5.30 ng and 4.97 ng and 4.35 ng | 5.30 and 4.97 | 1.06 ng and 0.99 ng and 0.87 ng | affinity for RBP4 lower than for fenretinide or retinol (RBP4): 2 fold; Kd (RBP4; read-out: affinity for RBP4): ~100 nM; metabolite level as % of plasma levels of 4-HPR [3]: ~ 45%
4 | CC1=C(/C=C/C(C)=C/C=C/C(C)=C/C(=O)Nc2ccc(O)cc2)C(C)(C)CCC1=O [3-keto-HPR, 4-oxo-N-(4-hydroxyphenyl)retinamide] | inhibit DES1 activity | ~ 3 fold | 0.66 | – | 25.15 and 24.70 and 25.05 | 14.35 and 14.50 and 14.55 | 25.15 ng and 24.70 ng and 25.05 ng | 14.35 ng and 14.50 ng and 14.55 ng | 5.03 ng and 4.94 ng and 5.01 ng | 2.87 ng and 2.90 ng and 2.91 ng | 0.676 and 0.776 and 0.667 | – | 9.70 ng and 11.25 ng | 9.70 and 11.25 | 1.94 ng and 2.25 ng | MEAN RATIO C18 DHCER/CER (DES1; listed as 3-KETO-HPR): 0.7062; MEAN RATIO C18 DHCER/CER (DES1; listed as KETO): 0.706; Ceramide Content, C16 DHCER (DES1; single samples): 19.55 ng and 15.70 ng and 14.55 ng; DHCER (C16) (DES1; single samples): 19.55 and 15.70 and 14.55; Mass Injected, C16 DHCER (DES1; single samples): 3.910 ng and 3.140 ng and 2.910 ng; RATIO (DH / C) C16 (DES1; single samples): 0.78 and 0.64 and 0.58; metabolite level as % of plasma levels of 4-HPR [4]: ~ 23%
